What all share (format): functional, cell-based
The target of series [1] is T1, ATP-dependent translocase ABCB1 (Homo sapiens, UniProt P08183). The experiment in a line: TP_TRANSPORTER: increase in digoxin intracellular accumulation (digoxin: 11nM, biochanin A: 150 uM) in Caco-2 cells. The following applies: caco-2, 150 µM.
Series [2] concerns the target T1, ATP-dependent translocase ABCB1. Description: TP_TRANSPORTER: increase in […] intracellular accumulation (VBL: 27nM, biochanin A: 150 uM) in Caco-2 cells. As to conditions: caco-2, 150 µM.
The target is the same in series [3]. The experiment in a line: TP_TRANSPORTER: increase in […] intracellular accumulation (VBL: 27nM, silymarin: 100 uM) in Caco-2 cells. As to conditions: caco-2, 100 µM.
For series [4] the target is unchanged. The experiment in a line: TP_TRANSPORTER: increase in digoxin intracellular accumulation (digoxin: 11nM, silymarin: 100 uM) in Caco-2 cells. As to conditions: caco-2, 100 µM.

T1 sequence (P08183 whole entry): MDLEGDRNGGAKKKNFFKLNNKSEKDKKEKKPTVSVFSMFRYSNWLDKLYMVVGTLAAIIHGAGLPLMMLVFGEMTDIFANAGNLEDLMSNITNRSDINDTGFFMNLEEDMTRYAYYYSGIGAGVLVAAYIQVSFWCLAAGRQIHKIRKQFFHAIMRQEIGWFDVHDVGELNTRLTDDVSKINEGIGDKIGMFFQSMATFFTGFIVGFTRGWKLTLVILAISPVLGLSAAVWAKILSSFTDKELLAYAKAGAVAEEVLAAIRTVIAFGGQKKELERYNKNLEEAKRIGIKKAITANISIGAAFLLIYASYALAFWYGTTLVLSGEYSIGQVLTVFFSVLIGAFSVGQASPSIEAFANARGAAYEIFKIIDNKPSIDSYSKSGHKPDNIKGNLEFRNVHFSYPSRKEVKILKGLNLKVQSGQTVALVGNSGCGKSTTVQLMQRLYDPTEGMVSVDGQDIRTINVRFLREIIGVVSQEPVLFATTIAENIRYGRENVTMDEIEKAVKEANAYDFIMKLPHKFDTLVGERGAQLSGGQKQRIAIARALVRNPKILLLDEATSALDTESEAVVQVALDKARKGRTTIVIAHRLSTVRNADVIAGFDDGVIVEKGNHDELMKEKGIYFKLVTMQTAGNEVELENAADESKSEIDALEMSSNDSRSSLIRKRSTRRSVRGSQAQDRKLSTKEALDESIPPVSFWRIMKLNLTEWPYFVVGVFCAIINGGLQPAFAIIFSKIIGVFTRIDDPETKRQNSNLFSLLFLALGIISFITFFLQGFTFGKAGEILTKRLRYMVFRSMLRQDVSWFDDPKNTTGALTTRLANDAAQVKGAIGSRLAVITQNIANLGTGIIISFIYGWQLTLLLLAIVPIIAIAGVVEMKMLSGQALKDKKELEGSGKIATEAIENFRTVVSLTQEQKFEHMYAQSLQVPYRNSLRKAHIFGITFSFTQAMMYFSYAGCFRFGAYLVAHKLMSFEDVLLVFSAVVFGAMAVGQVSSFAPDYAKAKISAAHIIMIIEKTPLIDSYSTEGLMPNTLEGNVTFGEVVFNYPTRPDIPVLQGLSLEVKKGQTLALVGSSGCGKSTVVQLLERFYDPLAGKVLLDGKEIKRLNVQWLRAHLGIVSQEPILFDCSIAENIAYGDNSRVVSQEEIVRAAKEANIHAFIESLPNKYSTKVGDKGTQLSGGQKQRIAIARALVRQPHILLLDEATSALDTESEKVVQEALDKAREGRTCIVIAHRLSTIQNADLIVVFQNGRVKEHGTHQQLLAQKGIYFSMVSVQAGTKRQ

Regarding `COc1ccc(-c2coc3cc(O)cc(O)c3c2=O)cc1` [BIOCHANIN], the Activity result in series [1] and in series [2] was “inhibitor [+]” in each case.
Consider SILYMARIN, for which the Activity result in series [3] and in series [4] was “inhibitor [+]” in each case.
